Values after ≈ are worked out from the molar mass of the structure shown. Like-named read-outs stand apart in the source and are kept apart here. Ends that are not written are not given here.
What was measured:
M. catarrhalis = assay type: cell-based, Moraxella catarrhalis
Procedure: Colonies of M. catarrhalis were grown on sheep blood agar plates for 12 h at 37°C and 5% CO2 before transfer to brain heart infusion (BHI) medium (Carl Roth, Karlsruhe, Germany) at an initial concentration of 1.6 × 10^7 cells/ml (OD600 = 0.08) as determined using an Ultraspec 10 cell densitometer (Amersham BioSciences, Little Chalfont, UK). Bacteria were cultivated in a shaking incubator at 37°C until the concentration reached 1.2 × 10^8 cells/ml (OD600 = 0.6) and then diluted to 2 × 10^6 cells/ml (OD600 = 0.011). To establish the optimal concentration ranges for AMP activity, defensin 1 was prepared as a two-fold dilution series from 12.5 µM to 1.56 µM and was added to the bacterial cultures, which were incubated as above for a further 16 h. Untreated cultures were used as controls. The OD600 was measured automatically at 30-min intervals using an Infinite M200 Pro plate reader (Tecan Life Sciences, Männedorf, Switzerland). […] They were cultivated for a further 15 h at 37°C and 5% CO2 in serial dilution before manual counting of the colonies on each plate.
Table S1. Detailed characterization of tested AMPs. M.c. were grown to an Optical Density (OD) 600nm of 0.6 in Brain Heart Infusion (BHI) Medium.
Upon dilution to OD600nm= 0.01, M.c. were incubated with declining amounts of indicated AMPs (25 μM to 0.048 μM at halving intervals) at 37°C with 5% CO2.
OD600nm was measured at 30 min intervals to establish the minimal inhibitory concentration (MIC). pI = isoelectric point, MW = molecular weight in kiloDalton.
MIC AMP name AMP class Organism Amino Acid Sequence pIMWPurity Retention time [min] modification
0.195 µM Cecropin A α-helical Hyalophora cecropia […] 10.75 4.00 91.06 7.30 n-term. amidation
0.39 µM Sarcotoxin IA α-helical Sarcophaga peregrina […] 11.07 4.16 91.37 9.37 n-term. amidation
~ 25µM Stomoxyn α-helical Stomoxys calcitrans […] 11.26 4.40 95.34 10.08 n-term. amidation
~ 25µM Spinigerin linear Pseudacanthotermes spiniger […] 11.07 3.00 96.23 12.45 none
>25µM Apidaecin Ia proline-rich Apis mellifera GNNRPVYIPQPRPPHPRI 11.71 2.11 92.98 16.91 none
>25µM Drosocin proline-rich Drosophila melanogaster GKPRPYSPRPTSHPRPIRV 12.01 2.20 92.86 11.65 none
>25µM Pyrrhocoricin proline-rich Pyrrhocoris apterus […] 10.27 2.34 93.17 11.38 none
>25 µM Metalnikowin-1 proline-rich Palomena prasina […] 9.98 1.84 92.85 13.36 none
>25 µM Metalnikowin-2A proline-rich Palomena prasina […] 9.98 1.84 92.39 10.85 none
>25 µM Metchnikowin-1 proline-rich Drosophila melanogaster […] 10.74 3.03 99.06 11.50 none
>25 µM Metchnikowin-2 proline-rich Drolophila melanogaster […] 11.54 3.04 97.16 11.46 none
12.5 µM Defensin 1 disulfide stabilized Tribolium castaneum […] 9.7 4.83 90.53 18.41 none
~ 25 µM Cecropin-like α-helical Lucilia sericata[…] 10.35 6.66 90.28 12.01 none
0.195 µM Cecropin α-helical Galleria mellonella […] 10.21 4.21 93.61 12.33 n-term. amidation
0.37 µM Cecropin α-helical Lucilia sericata […] 10.56 4.26 94.31 10.83 n-term. amidation
12.5 µM Stomoxyn α-helical Lucilia sericata […] 10.73 4.38 90.37 13.35n-term. amidation n-term.
1.56 µM Cecropin(Sarcotoxin) α-helical Eristalis tenax […] 10.56 4.14 90.80 9.76 none

[1] = cited from earlier work
mice = settings: dose of 10 mg/kg; cited from earlier work
[2] = cited from earlier work; remark: listed apart in the source
From the text: We furthermore tested the effect of defensin 1 and sarcotoxin 1 C on the commensals E. faecalis and E. coli. Selectivity of AMPs may provide an important therapeutic advantage over broad-spectrum antibiotics because AMPs targeting pathogens but not commensals would avoid the common side effects of antibiotic therapy. […] Sarcotoxin 1 C was previously shown to inhibit 90% of clinical multidrug-resistant isolates of Ent ...

[3] = M. catarrhalis grown to OD600 0.6 in BHI, diluted to OD600 0.01, AMP 25 µM to 0.048 µM at halving intervals, 37°C, 5% CO2, OD600 every 30 min

Row | Molecule | MIC (minimal inhibitory concentration) (M. catarrhalis; 12 h) | MIC (minimal inhibitory concentration) (M. catarrhalis; [3]) | other results
1 | CC[C@H](C)[C@H](NC(=O)CNC(=O)[C@H](CC(C)C)NC(=O)CNC(=O)[C@H](CCC(N)=O)NC(=O)[C@@H](NC(=O)[C@@H](NC(=O)[C@H](C)NC(=O)[C@H](CC(=O)O)NC(=O)[C@H](CCCNC(=N)N)NC(=O)[C@@H](NC(=O)[C@H](Cc1c[nH]cn1)NC(=O)[C@H](CCC(N)=O)NC(=O)CNC(=O)[C@@H](NC(=O)[C@H](CCCNC(=N)N)NC(=O)[C@H](CCC(=O)O)NC(=O)[C@@H](NC(=O)[C@H](CCCCN)NC(=O)[C@H](CCCCN)NC(=O)CNC(=O)[C@@H](NC(=O)[C@H](CCCCN)NC(=O)[C@H](CCCCN)NC(=O)[C@H](CC(C)C)NC(=O)[C@H](Cc1c[nH]c2ccccc12)NC(=O)CN)[C@@H](C)CC)[C@@H](C)CC)C(C)C)[C@@H](C)O)[C@@H](C)O)[C@@H](C)CC)C(=O)N[C@@H](C)C(=O)N[C@@H](CCC(N)=O)C(=O)N[C@@H](CCC(N)=O)C(=O)N[C@@H](C)C(=O)N[C@@H](C)C(=O)N[C@@H](CC(N)=O)C(=O)N[C@H](C(=O)N[C@@H](C)C(=O)N[C@@H](C)C(=O)N[C@H](C(=O)N[C@@H](C)C(=O)N[C@@H](CCCNC(=N)N)C(N)=O)[C@@H](C)O)C(C)C [Sarcotoxin IA] |  | 0.39 µM (≈ 1.62 µg/mL) | 
2 | FVPYNPPRPGQSKPFPSFPGHGPFNPKIQWPYPLPNPGH [Abaecin] | > 25 µM |  | 
3 | GFLKKIGKKLEGAVQRTRDATIQTIAVAQAAANVAATAKQ [Cecropin(Sarcotoxin)] |  | 1.56 µM | 
4 | GGLKKLGKKLEGAGKRVFNAAEKALPVVAGAKALRK [Cecropin A (Aedes aegypti)] | 1.56 µM |  | 
5 | GNNRPVYIPQPRPPHPRI [Apidaecin Ia] | > 25 µM |  | 
6 | GWLKKIGKKIERVGQHTRDATIQTIGVAQQAANVAATLKG-NH2 [Sarcotoxin 1 C] |  | 0.37 µM | cardiotoxicity [1]: no cytotoxicity or cardiotoxicity; acute toxicity in mice (mice): no acute toxicity; broad-panel off-target profile [2]: inconspicuous; cytotoxicity [2]: no cytotoxicity; in vitro therapeutic index [2]: good
7 | KWKIFKKIEKAGRNIRDGIIKAGPAVSVVGEAATIYKTG-NH2 [Cecropin (Galleria mellonella)] | 0.195 µM |  | 
8 | RGFRKHFNKLVKKVKHTISETAHVAKDTAVIAGSGAAVVAAT-NH2 [Stomoxyn (Stomoxys calcitrans)] |  | ~ 25 µM | 
9 | SIGSAFKKALPVAKKIGKAALPIAKAALP [Ceratotoxin] |  | > 25 µM | 
10 | VDKGSYLPRPTPPRPIYNRN [Pyrrhocoricin] |  | > 25 µM | 

Second part, led by results:

Row | MIC (minimal inhibitory concentration) (M. catarrhalis; 12 h) | Molecule | MIC (minimal inhibitory concentration) (M. catarrhalis; [3]) | other results
11 | > 25 µM | DLRFLYPRGKLPVPTPPPFNPKPIYIDMGNRY [Lebocin-1] |  | 
12 | 12.5 µM | GFRKRFNKLVKKVKHTIKETANVSKDVAIVAGSGVAVGAAMG-NH2 [Stomoxyn (Lucilia sericata)] |  | 
13 | > 25 µM | GKPRPYSPRPTSHPRPIRV [Drosocin] |  | 
14 | > 25 µM | GRPNPVNNKPTPHPRL [Formaecin-1] |  | 
15 | > 25 µM | HRHQGPIFDTRPSPFNPNQPRPGPIY [Metchnikowin-1] |  | 
16 | > 25 µM | HRRQGPIFDTRPSPFNPNQPRPGPIY [Metchnikowin-2] |  | 
17 | ~ 25 µM | HVDKKVADKVLLLKQLRIMRLLTRL [Spinigerin] |  | 
18 | 0.195 µM | KWKLFKKIEKVGQNIRDGIIKAGPAVAVVGQATQIAK-NH2 [Cecropin A (Hyalophora cecropia)] |  | 
19 | > 25 µM | VDKPDYRPRPRPPNM [Metalnikowin-1] |  | 
20 | > 25 µM | VDKPDYRPRPWPRPN [Metalnikowin-2A] |  | 

Source: PMC8043168, “Tribolium castaneum defensin 1 kills Moraxella catarrhalisin an in vitro infection model but does not harm commensal bacteria” (Virulence, 2021)
